For twelve compounds, EC50 results are on record in patent US8648038B2, “(2-aryloxyacetylamino)phenylpropionic acid derivatives, processes for preparation thereof and use thereof as medicaments” (Sanofi, priority 2010, dated 2014).

T1 sequence (Q8K3T4 whole entry): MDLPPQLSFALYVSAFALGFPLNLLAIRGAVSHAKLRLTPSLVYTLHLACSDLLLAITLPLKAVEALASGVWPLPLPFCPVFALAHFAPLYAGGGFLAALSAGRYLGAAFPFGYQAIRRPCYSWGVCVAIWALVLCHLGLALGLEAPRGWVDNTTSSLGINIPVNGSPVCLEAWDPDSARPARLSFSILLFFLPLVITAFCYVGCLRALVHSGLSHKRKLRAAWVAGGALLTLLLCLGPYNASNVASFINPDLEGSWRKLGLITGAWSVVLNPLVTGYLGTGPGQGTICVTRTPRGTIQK

This experiment addresses T1, GPR40 (Rattus norvegicus, UniProt Q8K3T4).
T1 construct: expressed in transfected cells; host or cells: HEK293
Briefly: In vitro FLIPR assay with recombinant HEK293 cells which express the GPCR GPR40 (intracellular Ca2+). It counts as cell-based. To be noted: recombinant HEK293 cells expressing GPR40; Fluo-4 Ca2+ signal; 100% = 10 μM linoleic acid. On the procedure:
In Vitro FLIPR Assay with Recombinant Cells which Express the GPCR GPR40
Function-testing assays were performed by means of the FLIPR technique (“Fluorescence Imaging Plate Reader”, Molecular Devices Corp.). For this purpose, agonist-induced changes were determined in the intracellular concentration of Ca^2+ in recombinant HEK293 cells which expressed the GPCR GPR40.
For the studies, cells were sown into 96-well microtiter plates (60 000 cells/well) and left to grow overnight. The medium was removed and the cells were incubated in buffer which contains the fluorescent dye Fluo-4. After this loading with dye, the cells were washed, test substance was added and changes were measured in the intracellular Ca^2+ concentration in the FLIPR instrument. Results were presented as the percentage change relative to the control (0%: no test substance added; 100%: 10 μM reference agonist linoleic acid added) and used to calculate dose/effect curves, and EC50 values were determined.
Regarding `CC#CC(CC(=O)O)c1ccc(NC(=O)C(C)Oc2cc(C)ccc2C(C)C)cc1` (stereo not drawn) [Example 4], the EC50 came to 0.094 µM. In the case of `CC#CC(CC(=O)O)c1ccc(NC(=O)C(C)Oc2cc(C(C)C)ccc2C)cc1` (stereo not drawn) [Example 5] it was 0.176 µM; in that of `CC#CC(CC(=O)O)c1ccc(NC(=O)C(C)Oc2cccc(C(C)C)c2)cc1` (stereo not drawn) [Example 6, 3-{4-[2-(3-Isopropylphenoxy)propionylamino]phenyl}hex-4-ynoic acid], 0.071 µM. In the case of `CC#CC(CC(=O)O)c1ccc(NC(=O)C(C)(C)Oc2ccc(C(C)C)cc2Br)cc1` (stereo not drawn) [Example 8], the EC50 is 1.14 µM. As for `CC#CC(CC(=O)O)c1ccc(NC(=O)C(Oc2ccc(C(C)C)cc2Br)C(C)C)cc1` (stereo not drawn) [Example 9], the figure is 0.553 µM; as for `CC#CC(CC(=O)O)c1ccc(NC(=O)C(C)(C)Oc2cccc(C(C)C)c2)cc1` (stereo not drawn) [Example 16], 0.187 µM. Turning to `CC#CC(CC(=O)O)c1ccc(NC(=O)C(C)(C)Oc2ccc(C(C)(C)C)cc2Br)cc1` (stereo not drawn) [Example 22], the EC50 was determined as 4.46 µM. As to `COC(CC(=O)O)c1ccc(NC(=O)C(C)Oc2cc(C(C)C)ccc2C)cc1` (stereo not drawn) [Example 39], the EC50 was found to be 5.08 µM. As for `COC(CC(=O)O)c1ccc(NC(=O)C(C)Oc2cc(C)ccc2C(C)C)cc1` (stereo not drawn) [Example 40, 3-{4-[2-(2-Isopropyl-5-methylphenoxy)propionylamino]phenyl}-3-methoxypropionic Acid], the figure is 2.13 µM. As for `COC(CC(=O)O)c1ccc(NC(=O)C(C)Oc2cccc(C(C)(C)C)c2)cc1` (stereo not drawn) [Example 42], the EC50 turned out to be 10.7 µM.

As to `COC(CC(=O)O)c1ccc(NC(=O)C(C)(C)Oc2ccc(Cl)cc2Cl)cc1` (stereo not drawn) [Example 43], the EC50 came out at 20.8 µM. In the case of `COC(CC(=O)O)c1ccc(NC(=O)C(C)(C)Oc2cccc(C(C)C)c2)cc1` (stereo not drawn) [Example 47] it was 1.16 µM.
